Consider eleven compounds from patent US7635716B2, “Substituted cyclopentanes or cyclopentanones as therapeutic agents” (Allergan, Inc., priority 2005, dated 2009).

In series [1] the target is T1, hEP3A/Gqi5 (Homo sapiens, UniProt P43115).
T1 construct: expressed in transfected cells; host or cells: HEK-293(EBNA) cells
T1 sequence (P43115 1-390): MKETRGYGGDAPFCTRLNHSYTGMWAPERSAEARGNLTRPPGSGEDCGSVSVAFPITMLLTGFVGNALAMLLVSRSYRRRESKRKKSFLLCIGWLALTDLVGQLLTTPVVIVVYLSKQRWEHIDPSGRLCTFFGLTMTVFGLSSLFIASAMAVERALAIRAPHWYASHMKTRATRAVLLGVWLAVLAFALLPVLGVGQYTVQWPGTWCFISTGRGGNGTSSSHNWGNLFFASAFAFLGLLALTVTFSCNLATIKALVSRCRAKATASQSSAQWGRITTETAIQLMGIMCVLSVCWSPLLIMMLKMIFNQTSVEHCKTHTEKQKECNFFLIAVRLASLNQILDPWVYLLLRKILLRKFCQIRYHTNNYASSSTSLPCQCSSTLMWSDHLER
Briefly: FLIPR calcium signal, HEK-293(EBNA) cells. The series is classed as cell-based. The procedure: (§1) HEK-293(EBNA) cells, stably expressing one type or subtype of recombinant human prostaglandin receptors (prostaglandin receptors expressed: hDP/Gqs5; hEP1; hEP2/Gqs5; hEP3A/Gqi5; hEP4/Gqs5; hFP; hIP; hTP), were cultured in 100 mm culture dishes in high-glucose DMEM medium containing 10% fetal bovine serum, 2 mM 1-glutamine, 250 μg/ml geneticin (G418) and 200 μg/ml hygromycin B as selection markers, and 100 units/ml penicillin G, 100 μg/ml streptomycin and 0.25 μg/ml amphotericin B.
(§2) Cells were seeded at a density of 5×10^4 cells per well in Biocoat® Poly-D-lysine-coated black-wall, clear-bottom 96-well plates (Becton-Dickinson) and allowed to attach overnight in an incubator at 37° C. Cells were then washed two times with HBSS-HEPES buffer (Hanks Balanced Salt Solution without bicarbonate and phenol red, 20 mM HEPES, pH 7.4) using a Denley Cellwash plate washer (Labsystems). After 45 minutes of dye-loading in the dark, using the calcium-sensitive dye Fluo-4 AM at a final concentration of 2 μM, plates were washed four times with HBSS-HEPES buffer to remove excess dye leaving 100 μl in each well. Plates were re-equilibrated to 37° C. for a few minutes.
(§3) Cells were excited with an Argon laser at 488 nm, and emission was measured through a 510-570 nm bandwidth emission filter (FLIPR™, Molecular Devices, Sunnyvale, Calif.). Drug solution was added in a 50 μl volume to each well to give the desired final concentration. The peak increase in fluorescence intensity was recorded for each well. On each plate, four wells each served as negative (HBSS-HEPES buffer) and positive controls (standard agonists: BW245C (hDP); PGE2 (hEP1; hEP2/Gqs5; hEP3A/Gqi5; hEP4/Gqs5); PGF2. (hFP); carbacyclin (hIP); U-46619 (hTP), depending on receptor). The peak fluorescence change in each drug-containing well was then expressed relative to the controls.
(§4) Compounds were tested in a high-throughput (HTS) or concentration-response (CoRe) format. In the HTS format, forty-four compounds per plate were examined in duplicates at a concentration of 10^−5 M. To generate concentration-response curves, four compounds per plate were tested in duplicates in a concentration range between 10^−5 and 10^−11 M. The duplicate values were averaged. In either, HTS or CoRe format each compound was tested on at least 3 separate plates using cells from different passages to give an n≧3.

For series [2], the target named is T2, hEP4/Gqs5 (Homo sapiens, UniProt P35408).
T2 construct: expressed in transfected cells; host or cells: HEK-293(EBNA) cells
T2 sequence (P35408 whole entry): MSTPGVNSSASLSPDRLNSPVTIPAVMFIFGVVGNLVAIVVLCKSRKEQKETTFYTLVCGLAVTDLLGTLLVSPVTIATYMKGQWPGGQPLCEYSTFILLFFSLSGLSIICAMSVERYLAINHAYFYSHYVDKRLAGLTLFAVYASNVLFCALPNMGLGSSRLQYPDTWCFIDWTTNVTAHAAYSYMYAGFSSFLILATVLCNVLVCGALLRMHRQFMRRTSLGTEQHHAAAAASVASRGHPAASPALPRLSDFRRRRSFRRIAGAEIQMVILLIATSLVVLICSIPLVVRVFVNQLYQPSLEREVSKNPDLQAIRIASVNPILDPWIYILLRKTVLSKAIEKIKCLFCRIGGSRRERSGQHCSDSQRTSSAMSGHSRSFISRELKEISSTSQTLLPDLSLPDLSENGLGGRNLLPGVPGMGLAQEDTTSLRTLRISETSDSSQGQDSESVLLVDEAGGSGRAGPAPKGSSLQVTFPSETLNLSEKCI
Briefly: FLIPR calcium signal, HEK-293(EBNA) cells. The class given is cell-based. As for the experimental part:
as §1, §2, §3, §4

The target of series [3] is T3, hEP2/Gqs5 (Homo sapiens, UniProt P43116).
T3 construct: expressed in transfected cells; host or cells: HEK-293(EBNA) cells
T3 sequence (P43116 whole entry): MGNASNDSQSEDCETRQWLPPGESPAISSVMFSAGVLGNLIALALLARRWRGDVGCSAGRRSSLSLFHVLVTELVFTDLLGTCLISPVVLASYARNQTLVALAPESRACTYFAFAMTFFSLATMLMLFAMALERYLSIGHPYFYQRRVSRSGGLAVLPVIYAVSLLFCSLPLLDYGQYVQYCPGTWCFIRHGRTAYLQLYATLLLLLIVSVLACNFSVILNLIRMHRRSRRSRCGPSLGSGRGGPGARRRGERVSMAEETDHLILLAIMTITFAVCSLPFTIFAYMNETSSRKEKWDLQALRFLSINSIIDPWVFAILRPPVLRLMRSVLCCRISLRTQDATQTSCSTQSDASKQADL
Briefly: FLIPR calcium signal, HEK-293(EBNA) cells. The series is classed as cell-based. The procedure:
as §1, §2, §3, §4

The test system of series [4] is normotensive dogs. The series can be described thus: Ocular surface hyperemia (OSH) in normotensive dogs. The class given is in vivo, dog. Set-up: maximum OSH score: scale not given here. The following applies: 0.1%, dosing once daily for 5 days. As for the experimental part: (§5) (Z)-7-[(1R,2S,3R,5R)-5-Chloro-2-(3,5-dichloro-phenoxymethyl)-3-hydroxy-cyclopentyl]-hept-5-enoic acid (15b) was tested at multiple concentrations in normotensive dogs, dosing once daily for 5 days. At 0.05%, the maximum IOP decrease from baseline was 4.3 mmHg (30%) at 6 h; the maximum OSH score was 0.6 at 6 h. […] This compound was also tested in laser-induced hypertensive monkeys, using one single day dose. At 0.1%, the maximum IOP decrease from baseline was 6 mmHg (19%) at 6 h.
(§6) (Z)-7-[(1R,2S,3R,5R)-5-Chloro-2-(3,5-dichloro-phenoxymethyl)-3-hydroxy-cyclopentyl]-hept-5-enoic acid isopropyl ester (42b) was tested in normotensive dogs at 0.05%, dosing once daily for 5 days. The maximum intraocular pressure (IOP) decrease from baseline was 3 mmHg (19%) at 6 h; the maximum ocular surface hyperemia (OSH) score was 0.6 at 74 h. This compound was also tested in laser-induced hypertensive monkeys, using one single day dose. At 0.01%, the maximum IOP decrease from baseline was 6 mmHg (16%) at 6 h.

Series [5] has as its system normotensive dogs. The series can be described thus: Intraocular pressure (IOP) in normotensive dogs. The series is classed as in vivo, dog. The following applies: Canis lupus familiaris, topical, 120 h, 0.1%, dosing once daily for 5 days, read-out: maximum IOP decrease from baseline (percent). As for the experimental part:
as §5, §6

Series [6] relates to laser-induced hypertensive monkeys. The series can be described thus: Intraocular pressure (IOP) in laser-induced hypertensive monkeys. The class given is in vivo, monkey. The following applies: Primates, topical, 0.1%, one single day dose, read-out: maximum IOP decrease from baseline (percent). As for the experimental part: as §5, §6
Series [7] concerns the target T4, hEP1 (Homo sapiens, UniProt P34995).
T4 construct: expressed in transfected cells; host or cells: HEK-293(EBNA) cells
T4 sequence (P34995 1-402): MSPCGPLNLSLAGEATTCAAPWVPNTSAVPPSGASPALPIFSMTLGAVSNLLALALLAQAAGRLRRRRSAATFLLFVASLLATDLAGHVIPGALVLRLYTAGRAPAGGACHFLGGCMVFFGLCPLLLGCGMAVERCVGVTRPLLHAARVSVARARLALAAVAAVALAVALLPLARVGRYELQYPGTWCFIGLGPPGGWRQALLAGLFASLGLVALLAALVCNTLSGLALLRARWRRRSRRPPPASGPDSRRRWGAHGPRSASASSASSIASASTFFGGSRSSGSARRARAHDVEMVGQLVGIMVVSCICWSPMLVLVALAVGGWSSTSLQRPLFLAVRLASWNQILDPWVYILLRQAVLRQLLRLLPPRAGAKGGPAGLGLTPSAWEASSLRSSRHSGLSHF
Briefly: FLIPR calcium signal, HEK-293(EBNA) cells. The series is classed as cell-based. As for the experimental part:
as §1, §2, §3, §4

For series [8], the target named is T5, hDP/Gqs5 (Homo sapiens, UniProt Q13258).
T5 construct: expressed in transfected cells; host or cells: HEK-293(EBNA) cells
T5 sequence (Q13258 1-359): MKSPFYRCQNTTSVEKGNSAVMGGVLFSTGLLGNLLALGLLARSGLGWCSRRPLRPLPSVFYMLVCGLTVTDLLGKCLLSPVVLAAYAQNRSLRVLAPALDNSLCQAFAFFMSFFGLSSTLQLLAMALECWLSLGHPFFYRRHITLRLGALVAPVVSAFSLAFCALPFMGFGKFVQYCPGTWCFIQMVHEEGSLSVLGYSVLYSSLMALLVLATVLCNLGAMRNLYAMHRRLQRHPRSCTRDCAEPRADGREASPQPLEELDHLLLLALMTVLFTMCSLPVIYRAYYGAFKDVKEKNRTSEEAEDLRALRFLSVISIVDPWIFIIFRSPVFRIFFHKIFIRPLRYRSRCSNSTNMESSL
Briefly: FLIPR calcium signal, HEK-293(EBNA) cells. The series is classed as cell-based. As for the experimental part: as §1, §2, §3, §4

The mark [9] stands for this setting: Table 1, second part, quantity not given, values match functional data (EC50) of first part, read-out: Other Receptors hEP3.
Setting [10] is: Table 1, first part, triplicate, read-out: functional data (EC50) hEP4.
Setting [11] is: Table 1, second part, read-out: hEP4 flipr EC50.
Where [12] appears, read: Table 1, first part, triplicate, read-out: functional data (EC50) hEP2.
The mark [13] stands for this setting: Table 1, second part, read-out: hEP2 flipr EC50.

Read-outs that look alike come from different tables or passages of the source.

`O=C(O)CCC/C=C\C[C@@H]1[C@@H](COc2cc(C(F)(F)F)cc(Cl)c2F)[C@H](O)C[C@H]1Cl` [Example 41, (Z)-7-[(1R,2S,3R,5R)-5-Chloro-2-(3-chloro-2-fluoro-5-trifluoromethyl-phenoxymethyl)-3-hydroxy-cyclopentyl]-hept-5-enoic acid]: the EC50 in series [1] (setting [9]) amounted to 1.64 µM.
As to `COC(=O)CCC/C=C\C[C@H]1C(=O)C=C[C@@H]1COc1ccccc1` [Example 1, (Z)-7-((1R,5S)-2-Oxo-5-phenoxymethyl-cyclopent-3-enyl)-hept-5-enoic acid methyl ester], the EC50 in series [2] (setting [10]), in series [2] (setting [11]), in series [3] (setting [12]) and in series [3] (setting [13]) was greater than 10 µM in each case.
For `O=C(O)CCC/C=C\C[C@@H]1[C@@H](COc2cccc(C(F)(F)F)c2)[C@H](O)C[C@H]1Cl` [Example 24, (Z)-7-[(1R,2S,3R,5R)-5-Chloro-3-hydroxy-2-(3-trifluoromethyl-phenoxymethyl)-cyclopentyl]-hept-5-enoic acid], in series [4], the “maximum OSH score” value amounted to 0.5 and the “time of maximum OSH score” value was 6 h. For the same compound, the inhibition in vivo at 0.1 % in series [5] was 16%. Moreover, the inhibition in vivo at 0.1 % in series [6] is 28%.
For `O=C(O)CCC/C=C\C[C@@H]1[C@@H](COc2ccc(CO)cc2)[C@H](O)C[C@H]1Cl` [Example 43, (Z)-7-[(1R,2S,3R,5R)-5-Chloro-3-hydroxy-2-(4-hydroxymethyl-phenoxymethyl)-cyclopentyl]-hept-5-enoic acid] the same measures were 0.6, 98 h, 20% and 6%.
For `Cc1cc(C)cc(OC[C@@H]2[C@@H](C/C=C\CCCC(=O)OC(C)C)[C@H](Cl)C[C@H]2O)c1` [Example 70, (Z)-7-[(1R,2S,3R,5R)-5-Chloro-2-(3,5-dimethyl-phenoxymethyl)-3-hydroxy-cyclopentyl]-hept-5-enoic acid isopropyl ester] the same measures were 0.9, 74 h, 30% and 23%.
For `O=C(O)CCC/C=C\C[C@@H]1[C@@H](COc2cc(C(F)(F)F)cc(C(F)(F)F)c2)[C@H](O)C[C@H]1Cl` [Example 15, (Z)-7-[(1R,2S,3R,5R)-2-(3,5-Bis-trifluoromethyl-phenoxymethyl)-5-chloro-3-hydroxy-cyclopentyl]-hept-5-enoic acid], in that order: 0.9, 52 h, 35% and 30%.
As for `COC(=O)CCCCCC[C@@H]1[C@@H](COc2ccccc2)[C@H](O)C[C@H]1Cl` [Example 9, 7-((1R,2S,3R,5R)-5-Chloro-3-hydroxy-2-phenoxymethyl-cyclopentyl)-heptanoic acid methyl ester], the EC50 was 3.71 µM in series [2] (setting [10]), greater than 10 µM in series [3] (setting [12]) and greater than 10 µM in series [3] (setting [13]).
In the case of `COC(=O)CCCCCC[C@@H]1[C@@H](COc2cc(Cl)cc(Cl)c2)[C@H](O)C[C@H]1Cl` [Example 13, 7-[(1R,2S,3R,5R)-5-Chloro-2-(3,5-dichloro-phenoxymethyl)-3-hydroxy-cyclopentyl]-heptanoic acid methyl ester], the EC50 in series [7] (Table 1, first part, triplicate, read-out: functional data (EC50) hEP1) was greater than 10 µM; in series [7] (Table 1, second part, quantity not given, values match functional data (EC50) of first part, read-out: Other Receptors hEP1), greater than 10 µM; in series [8] (Table 1, first part, triplicate, read-out: functional data (EC50) hDP), greater than 10 µM; in series [8] (Table 1, second part, quantity not given, values match functional data (EC50) of first part, read-out: Other Receptors hDP), greater than 10 µM; in series [2] (setting [10]), greater than 10 µM; in series [2] (setting [11]) it was greater than 10 µM. Besides, the EC50 in series [1] (Table 1, first part, data represents a single experiment, read-out: functional data (EC50) hEP3A*) is greater than 10 µM; in series [1] (setting [9]), greater than 10 µM; in series [3] (setting [12]), 1.66 µM.
In the case of `COC(=O)CCC/C=C\C[C@H]1C(=O)C[C@@H](O)[C@@H]1COc1ccccc1` [Example 2, (Z)-7-((1R,2S,3R)-3-Hydroxy-5-oxo-2-phenoxymethyl-cyclopentyl)-hept-5-enoic acid methyl ester], the EC50 in series [2] (setting [10]) and in series [2] (setting [11]) was greater than 10 µM each time.
In the case of `COC(=O)CCCCCC[C@H]1C(=O)CC[C@@H]1COc1ccccc1` [Example 5, 7-((1R,5S)-2-Oxo-5-phenoxymethyl-cyclopentyl)-heptanoic acid methyl ester], the EC50 in series [2] (setting [10]), in series [2] (setting [11]), in series [3] (setting [12]) and in series [3] (setting [13]) was greater than 10 µM each time.
On to `COC(=O)CCC/C=C\C[C@@H]1[C@@H](COc2ccccc2)[C@H](O)C[C@H]1Cl` [Example 7, (Z)-7-((1R,2S,3R,5R)-5-Chloro-3-hydroxy-2-phenoxymethyl-cyclopentyl)-hept-5-enoic acid methyl ester], for which the EC50 in series [2] (setting [10]), in series [2] (setting [11]), in series [3] (setting [12]) and in series [3] (setting [13]) was greater than 10 µM each time.
